Experimental findings from ChEMBL document CHEMBL1139660, “Imidazo[1,2-b][1,2,4]triazines as alpha2/alpha3 subtype selective GABA A agonists for the treatment of anxiety” (Bioorg Med Chem Lett, 2006) are described below.

In data set [1] the target is T1, GABA-A receptor; alpha-3/beta-3/gamma-2 (Homo sapiens, UniProt P18507+P28472+P34903).
T1 sequence (P18507 whole entry): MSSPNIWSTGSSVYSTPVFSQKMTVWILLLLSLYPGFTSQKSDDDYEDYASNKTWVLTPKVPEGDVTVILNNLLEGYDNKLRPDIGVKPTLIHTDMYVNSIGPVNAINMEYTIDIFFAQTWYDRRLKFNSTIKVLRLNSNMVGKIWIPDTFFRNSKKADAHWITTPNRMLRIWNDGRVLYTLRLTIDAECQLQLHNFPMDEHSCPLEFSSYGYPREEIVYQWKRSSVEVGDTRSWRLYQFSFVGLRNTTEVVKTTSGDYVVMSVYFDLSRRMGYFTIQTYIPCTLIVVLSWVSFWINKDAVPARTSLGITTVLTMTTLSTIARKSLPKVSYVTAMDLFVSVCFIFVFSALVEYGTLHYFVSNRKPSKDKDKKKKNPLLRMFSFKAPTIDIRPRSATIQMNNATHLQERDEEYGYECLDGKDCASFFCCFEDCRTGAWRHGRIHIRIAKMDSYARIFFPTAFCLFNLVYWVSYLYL
T1 sequence (P28472 whole entry): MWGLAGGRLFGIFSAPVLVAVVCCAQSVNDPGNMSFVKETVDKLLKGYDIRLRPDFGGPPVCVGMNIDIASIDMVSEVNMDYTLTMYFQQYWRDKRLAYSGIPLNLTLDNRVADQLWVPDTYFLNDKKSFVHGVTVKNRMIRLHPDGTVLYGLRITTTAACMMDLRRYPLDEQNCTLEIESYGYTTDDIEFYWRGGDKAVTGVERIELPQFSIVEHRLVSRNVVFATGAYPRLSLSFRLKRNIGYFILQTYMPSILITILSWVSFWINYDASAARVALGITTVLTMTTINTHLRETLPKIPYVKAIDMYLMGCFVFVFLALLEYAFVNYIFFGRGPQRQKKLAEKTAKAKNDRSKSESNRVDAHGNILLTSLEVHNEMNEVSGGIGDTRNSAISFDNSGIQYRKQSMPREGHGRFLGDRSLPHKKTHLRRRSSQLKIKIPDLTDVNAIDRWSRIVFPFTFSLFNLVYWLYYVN
T1 sequence (P34903 whole entry): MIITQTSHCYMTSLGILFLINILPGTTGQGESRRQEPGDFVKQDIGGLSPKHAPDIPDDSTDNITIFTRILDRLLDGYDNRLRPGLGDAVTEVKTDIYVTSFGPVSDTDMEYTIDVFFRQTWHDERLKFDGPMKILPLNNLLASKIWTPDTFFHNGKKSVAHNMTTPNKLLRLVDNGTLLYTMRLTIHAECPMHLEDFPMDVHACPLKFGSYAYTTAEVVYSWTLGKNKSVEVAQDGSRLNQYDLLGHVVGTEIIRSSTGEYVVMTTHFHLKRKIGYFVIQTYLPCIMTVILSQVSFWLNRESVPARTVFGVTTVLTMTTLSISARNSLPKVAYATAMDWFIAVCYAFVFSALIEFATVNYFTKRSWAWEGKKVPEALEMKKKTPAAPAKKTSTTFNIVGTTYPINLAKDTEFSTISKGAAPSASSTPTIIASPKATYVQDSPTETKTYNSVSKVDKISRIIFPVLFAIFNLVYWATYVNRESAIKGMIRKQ
In words: Displacement of [3H]Ro 15-1788 from recombinant human GABA-Aalpha3 receptor plus beta-3-gamma-2 expressed in L(tk-) cells. Format: cell-based.

The nature of data set [2]: Oral bioavailability in Beagle dog at 1 mg/kg, iv or 1 mg/kg, po. Format: ADME, organism-based, Canis lupus familiaris. To be noted: in vivo.
Data set [3] deals with GABA-A receptor; alpha-1/beta-3/gamma-2 (Homo sapiens) (UniProt P14867+P18507+P28472). In words: Efficacy against recombinant human GABA-Aalpha1 receptor plus beta-3-gamma-2 expressed in L(tk-) cells by whole cell patch clamp method. Format: functional, cell-based. On the technique in general: Patch clamp records ionic current or voltage across a cell membrane.
Data set [4] is described as follows: Oral bioavailability in Sprague-Dawley rat at 1 mg/kg, iv or 1 mg/kg, po. Format: ADME, organism-based. Particulars: in vivo.
Data set [5] in a line: Plasma clearance in Beagle dog at 1 mg/kg, iv or 1 mg/kg, po. Format: ADME, organism-based, Canis lupus familiaris.
Data set [6] is described as follows: Volume of distribution in Beagle dog at 1 mg/kg, iv or 1 mg/kg, po. Format: ADME, organism-based, Canis lupus familiaris. Particulars: in vivo, read-out: Vdss.
The target of data set [7] is T2, GABA-A receptor; alpha-2/beta-3/gamma-2 (Homo sapiens, UniProt P18507+P28472+P47869).
T2 sequence (P18507 whole entry): T1 sequence (P18507 whole entry)
T2 sequence (P28472 whole entry): T1 sequence (P28472 whole entry)
T2 sequence (P47869 whole entry): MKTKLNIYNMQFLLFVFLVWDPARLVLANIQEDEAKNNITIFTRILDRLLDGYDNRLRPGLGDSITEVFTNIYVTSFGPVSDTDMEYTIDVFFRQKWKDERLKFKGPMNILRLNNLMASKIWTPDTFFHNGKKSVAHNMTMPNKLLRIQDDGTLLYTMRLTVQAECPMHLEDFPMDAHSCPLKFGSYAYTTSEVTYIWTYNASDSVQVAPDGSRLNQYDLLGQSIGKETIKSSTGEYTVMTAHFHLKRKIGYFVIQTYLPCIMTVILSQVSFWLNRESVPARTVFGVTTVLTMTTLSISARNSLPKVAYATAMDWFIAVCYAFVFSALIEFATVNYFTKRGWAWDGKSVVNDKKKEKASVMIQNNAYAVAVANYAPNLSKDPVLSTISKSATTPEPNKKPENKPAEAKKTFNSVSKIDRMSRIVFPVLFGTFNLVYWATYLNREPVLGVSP
In words: Displacement of [3H]Ro 15-1788 from recombinant human GABA-Aalpha2 receptor plus beta-3-gamma-2 expressed in mouse L(tk-) cells. Format: cell-based.

In data set [8] the target is GABA-A receptor; alpha-3/beta-3/gamma-2 (Homo sapiens) (UniProt P18507+P28472+P34903). In words: Efficacy against recombinant human GABA-Aalpha3 receptor plus beta-3-gamma-2 expressed in L(tk-) cells by whole cell patch clamp method relative to chlordiazepoxide. Format: functional, cell-based.
Data set [9] can be described thus: Half life in Sprague-Dawley rat at 1 mg/kg, iv or 1 mg/kg, po. Format: ADME, organism-based. To be noted: in vivo.
For data set [10], the target named is GABA-A receptor; alpha-2/beta-3/gamma-2 (Homo sapiens) (UniProt P18507+P28472+P47869). In words: Efficacy against recombinant human GABA-Aalpha2 receptor plus beta-3-gamma-2 expressed in L(tk-) cells by whole cell patch clamp method relative to chlordiazepoxide. Format: functional, cell-based.
In data set [11] the target is GABA-A receptor; alpha-5/beta-3/gamma-2 (Homo sapiens) (UniProt P18507+P28472+P31644). In words: Efficacy against recombinant human GABA-Aalpha5 receptor plus beta3gamma2 expressed in L(tk-) cells by whole cell patch clamp method relative to chlordiazepoxide. Format: functional, cell-based.

A word on the Ki: it is the dissociation constant of the complex between target and ligand, obtained from inhibition or displacement. For orientation: half-life means the time needed for the level to fall by half in the phase considered. Lower therefore signals fast loss. As to `CC(C)(O)c1cnn2c(-c3ccc(F)c(-c4ncc(F)cc4F)c3)cnc2n1`, the figures for the Ki in data set [1] and in [7] were 4.5 nM and 3.44 nM, respectively. The results for the bioavailability in [2] and in data set [4] were 64% and 69%, respectively. The Efficacy in [3] is 0; in data set [8] it was 0.5; in data set [10], 0.39; in data set [11] it was 0.09. The compound also yielded a clearance in data set [5] of 0.5 mL/min/kg. In addition, in [6], the Vd worked out at 2.3 L/kg. In [9], this compound gave a half-life of 22 h.

As to `CC(C)(O)c1cnn2c(-c3ccc(F)c(-c4ncccc4C#N)c3)cnc2n1`, the results for the inhibition constant (Ki) in data set [1] and in data set [7] were 9.53 nM and 8.43 nM, respectively. The bioavailability was 99% in [2] and 102% in data set [4]. The Efficacy was 0.01 in data set [3], 0.69 in data set [8], 0.37 in [10] and 0.2 in data set [11]. The clearance in data set [5] came out at 2.2 mL/min/kg. The Vd in [6] came out at 1.5 L/kg. In [9], this compound showed a half-life of 7.9 h.
